From patent US8853196B2, “Aminochromane, aminothiochromane and amino-1,2,3,4-tetrahydroquinoline derivatives, pharmaceutical compositions containing them, and their use in therapy” (AbbVie Deutschland GmbH & Co. KG, priority 2011, dated 2014)
Structures can show the parent of a compound that is named as a salt.

Each compound was assayed against T1, human GlyT1c transporter (Homo sapiens, UniProt P48067) (assay: Radioligand binding assay using recombinant CHO cell membranes expressing human GlyT1). Settings: values given as upper bounds, read-out: radioligand binding Kiapp.
T1 construct: expressed in transfected cells; host or cells: CHO cells (recombinant; membranes)
T1 sequence (P48067 1-706): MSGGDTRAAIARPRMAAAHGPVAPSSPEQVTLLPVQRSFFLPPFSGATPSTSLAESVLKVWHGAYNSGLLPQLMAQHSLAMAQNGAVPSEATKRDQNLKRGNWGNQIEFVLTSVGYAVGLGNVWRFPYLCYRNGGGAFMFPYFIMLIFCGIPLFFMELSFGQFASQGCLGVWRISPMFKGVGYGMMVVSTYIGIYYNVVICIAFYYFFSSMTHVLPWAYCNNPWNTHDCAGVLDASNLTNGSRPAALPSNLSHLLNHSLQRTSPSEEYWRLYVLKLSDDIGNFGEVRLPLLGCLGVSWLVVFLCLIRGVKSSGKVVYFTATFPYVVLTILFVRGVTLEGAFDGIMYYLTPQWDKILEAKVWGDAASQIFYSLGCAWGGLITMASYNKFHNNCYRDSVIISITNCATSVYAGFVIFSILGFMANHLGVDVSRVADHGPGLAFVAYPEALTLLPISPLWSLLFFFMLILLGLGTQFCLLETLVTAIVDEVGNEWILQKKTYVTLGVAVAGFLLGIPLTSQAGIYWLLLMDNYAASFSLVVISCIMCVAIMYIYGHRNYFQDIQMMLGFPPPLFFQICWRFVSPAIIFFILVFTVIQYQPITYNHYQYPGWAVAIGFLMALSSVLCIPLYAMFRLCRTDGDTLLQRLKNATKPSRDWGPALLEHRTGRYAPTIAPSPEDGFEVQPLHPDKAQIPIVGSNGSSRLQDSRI
Protocol: 2. Radioligand Binding Assays Using Recombinant CHO Cell Membranes Expressing Human GlyT1:
Radioligand binding to human GlyT1c transporter-expressing membranes was determined as described in Mezler et al., Molecular Pharmacology 74:1705-1715, 2008.

Row | Ki [nM] | SMILES
1 | ≤ 10 | CN[C@@H]1COc2ccc(OCCNS(=O)(=O)c3cnn(C)c3)cc2[C@@H]1Cc1ccccc1 (relative stereo) [Example 1a, cis-N-(2-{[4-Benzyl-3-(methylamino)-3,4-dihydro-2H-chromen-6-yl]oxy}ethyl)-1-methyl-1H-pyrazole-4-sulfonamide hydrochloride]
2 | ≤ 10 | CN[C@@H]1COc2ccc(OCCNS(=O)(=O)c3cnn(C)c3)cc2[C@H]1Cc1ccccc1 (relative stereo) [Example 1b, trans-N-(2-{[-4-benzyl-3-(methylamino)-3,4-dihydro-2H-chromen-6-yl]oxy}ethyl)-1-methyl-1H-pyrazole-4-sulfonamide hydrochloride]
3 | ≤ 10 | CN[C@@H]1COc2ccc(OCCNS(=O)(=O)c3cn(C)cn3)cc2[C@@H]1Cc1ccccc1 (relative stereo) [Example 2a, cis-N-(2-{[-4-Benzyl-3-(methylamino)-3,4-dihydro-2H-chromen-6-yl]oxy}ethyl)-1-methyl-1H-imidazole-4-sulfonamide]
4 | ≤ 10 | CN[C@@H]1COc2ccc(OCCNS(=O)(=O)c3cn(C)cn3)cc2[C@H]1Cc1ccccc1 (relative stereo) [Example 2b, trans-N-(2-{[-4-benzyl-3-(methylamino)-3,4-dihydro-2H-chromen-6-yl]oxy}ethyl)-1-methyl-1H-imidazole-4-sulfonamide]
5 | ≤ 100 | CCCS(=O)(=O)NCCOc1ccc2c(c1)[C@H](Cc1ccccc1)[C@H](NC)CO2 (relative stereo) [Example 3a, cis-N-(2-{[-4-Benzyl-3-(methylamino)-3,4-dihydro-2H-chromen-6-yl]oxy}ethyl)propane-1-sulfonamide]
6 | ≤ 1000 | CCCS(=O)(=O)NCCOc1ccc2c(c1)[C@@H](Cc1ccccc1)[C@H](NC)CO2 (relative stereo) [Example 3b, trans-N-(2-{[-4-benzyl-3-(methylamino)-3,4-dihydro-2H-chromen-6-yl]oxy}ethyl)propane-1-sulfonamide]
7 | ≤ 10 | CN[C@@H]1COc2ccc(OCCNS(=O)(=O)CC3CC3)cc2[C@@H]1Cc1ccccc1 (relative stereo) [Example 4a, cis-N-(2-{[-4-Benzyl-3-(methylamino)-3,4-dihydro-2H-chromen-6-yl]oxy}ethyl)-1-cyclopropylmethanesulfonamide]
8 | ≤ 100 | CN[C@@H]1COc2ccc(OCCNS(=O)(=O)CC3CC3)cc2[C@H]1Cc1ccccc1 (relative stereo) [Example 4b, trans-N-(2-{[-4-benzyl-3-(methylamino)-3,4-dihydro-2H-chromen-6-yl]oxy}ethyl)-1-cyclopropylmethanesulfonamide]
9 | ≤ 10 | CN[C@@H]1COc2ccc(CNS(=O)(=O)c3cn(C)cn3)cc2[C@@H]1Cc1ccccc1 (relative stereo) [Example 5a, cis-1-Methyl-1H-imidazole-4-sulfonic acid (4-benzyl-3-methylamino-chroman-6-ylmethyl)-amide]
10 | ≤ 10 | CN[C@@H]1COc2ccc(CNS(=O)(=O)c3cn(C)cn3)cc2[C@H]1Cc1ccccc1 (relative stereo) [Example 5b, trans-1-Methyl-1H-imidazole-4-sulfonic acid (4-benzyl-3-methylamino-chroman-6-ylmethyl)-amide]
11 | ≤ 10 | CN[C@@H]1COc2ccc(CNS(=O)(=O)c3cnn(C)c3)cc2[C@@H]1Cc1ccccc1 (relative stereo) [Example 6a, cis-N-{[4-benzyl-3-(methylamino)-3,4-dihydro-2H-chromen-6-yl]methyl}-1-methyl-1H-pyrazole-4-sulfonamide]
12 | ≤ 10 | CN[C@@H]1COc2ccc(CNS(=O)(=O)c3cnn(C)c3)cc2[C@H]1Cc1ccccc1 (relative stereo) [Example 6b, trans-N-{[-4-benzyl-3-(methylamino)-3,4-dihydro-2H-chromen-6-yl]methyl}-1-methyl-1H-pyrazole-4-sulfonamide]
13 | ≤ 10 | CCCS(=O)(=O)NCc1ccc2c(c1)[C@H](Cc1ccccc1)[C@H](NC)CO2 (relative stereo) [Example 7a, cis-N-{[4-Benzyl-3-(methylamino)-3,4-dihydro-2H-chromen-6-yl]methyl}propane-1-sulfonamide]
14 | ≤ 100 | CCCS(=O)(=O)NCc1ccc2c(c1)[C@@H](Cc1ccccc1)[C@H](NC)CO2 (relative stereo) [Example 7b, trans-N-{[4-benzyl-3-(methylamino)-3,4-dihydro-2H-chromen-6-yl]methyl}propane-1-sulfonamide]
15 | ≤ 10 | CN[C@@H]1COc2ccc(CNS(=O)(=O)CC3CC3)cc2[C@@H]1Cc1ccccc1 (relative stereo) [Example 8a, cis-N-{[4-Benzyl-3-(methylamino)-3,4-dihydro-2H-chromen-6-yl]methyl}-1-cyclopropylmethanesulfonamide]
16 | ≤ 100 | CN[C@@H]1COc2ccc(CNS(=O)(=O)CC3CC3)cc2[C@H]1Cc1ccccc1 (relative stereo) [Example 8b, trans-N-{[4-benzyl-3-(methylamino)-3,4-dihydro-2H-chromen-6-yl]methyl}-1-cyclopropylmethanesulfonamide]
17 | ≤ 100 | CCS(=O)(=O)NCc1ccc2c(c1)[C@H](Cc1ccccc1)[C@H](NC)CO2 (relative stereo) [Example 9a, cis-N-{[4-Benzyl-3-(methylamino)-3,4-dihydro-2H-chromen-6-yl]methyl}ethanesulfonamide]
18 | ≤ 1000 | CCS(=O)(=O)NCc1ccc2c(c1)[C@@H](Cc1ccccc1)[C@H](NC)CO2 (relative stereo) [Example 9b, trans-N-{[4-benzyl-3-(methylamino)-3,4-dihydro-2H-chromen-6-yl]methyl}ethanesulfonamide]
19 | ≤ 10 | Cn1cnc(S(=O)(=O)NCCOc2ccc3c(c2)[C@H](Cc2ccccc2)[C@H](N2CCC2)CO3)c1 (relative stereo) [Example 10, cis-1-Methyl-1H-imidazole-4-sulfonic acid [2-(3-azetidin-1-yl-4-benzyl-chroman-6-yloxy)-ethyl]-amide]
20 | ≤ 1000 | O=S(=O)(CC1CC1)NCCOc1ccc2c(c1)[C@H](Cc1ccccc1)[C@H](N1CCC1)CO2 (relative stereo) [Example 11, cis-N-[2-(3-Azetidin-1-yl-4-benzyl-chroman-6-yloxy)-ethyl]-C-cyclopropyl-methanesulfonamide]
21 | ≤ 10 | Cn1cnc(S(=O)(=O)NCc2ccc3c(c2)[C@H](Cc2ccccc2)[C@H](N)CO3)c1 (relative stereo) [Example 12, cis-1-Methyl-1H-imidazole 4-sulfonic acid (3-amino-4-benzyl-chroman-6-ylmethyl)-amide]
22 | ≤ 10 | Cn1cnc(S(=O)(=O)NCc2ccc3c(c2)[C@@H](Cc2ccccc2)[C@H](N)CO3)c1 (relative stereo) [Example 13, trans-1-Methyl-1H-imidazole-4-sulfonic acid (3-amino-4-benzyl-chroman-6-ylmethyl)-amide]
23 | ≤ 100 | CCCS(=O)(=O)NCCOc1ccc2c(c1)[C@H](Cc1ccccc1)[C@H](N1CCC1)CO2 (relative stereo) [Example 14, cis-Propane-1-sulfonic acid [2-(3-azetidin-1-yl-4-benzyl-chroman-6-yloxy)-ethyl]-amide; trifluoro-acetic acid salt]
24 | ≤ 10 | Cn1cc(S(=O)(=O)NCc2ccc3c(c2)[C@H](Cc2ccccc2)[C@H](N2CCC2)CO3)cn1 (relative stereo) [Example 15, cis-1-Methyl-1H-pyrazole-4-sulfonic acid (3-azetidin-1-yl-4-benzyl-chroman-6-ylmethyl)-amide]
25 | ≤ 10 | Cn1cc(S(=O)(=O)NCCOc2ccc3c(c2)[C@H](Cc2ccccc2)[C@H](N2CCC2)CO3)cn1 (relative stereo) [Example 16, cis-1-Methyl-1H-pyrazole-4-sulfonic acid [2-(3-azetidin-1-yl-4-benzyl-chroman-6-yloxy)-ethyl]-amide]
26 | ≤ 100 | CCS(=O)(=O)NCCOc1ccc2c(c1)[C@H](Cc1ccccc1)[C@H](N1CCC1)CO2 (relative stereo) [Example 18, cis-Ethanesulfonic acid [2-(3-azetidin-1-yl-4-benzyl-chroman-6-yloxy)-ethyl]-amide]
27 | ≤ 10 | Cn1cnc(S(=O)(=O)NCc2ccc3c(c2)[C@@H](Cc2ccccc2)[C@@H](NCC2CCCCC2)CO3)c1 (relative stereo) [Example 22, cis-1-Methyl-1H-imidazole-4-sulfonic acid [4-benzyl-3-(cyclohexylmethyl-amino)-chroman-6-lmethyl]-amide; trifluoro-acetic acid salt]
28 | ≤ 100 | CCS(=O)(=O)NCc1ccc2c(c1)[C@H](Cc1ccccc1)[C@H](N)CO2 (relative stereo) [Example 23, cis-Ethanesulfonic acid (3-amino-4-benzyl-chroman-6-ylmethyl)-amide]
29 | ≤ 100 | CCS(=O)(=O)NCc1ccc2c(c1)[C@@H](Cc1ccccc1)[C@H](N)CO2 (relative stereo) [Example 24, trans-Ethanesulfonic acid (3-amino-4-benzyl-chroman-6-ylmethyl)-amide]
